Experimental data from patent publication US8580814B2, “Methods of using (+)-1,4-dihydro-7-[(3S,4S)-3-methoxy-4-(methylamino)-1-pyrrolidinyl]-4- oxo-1-(2-thiazolyl)-1,8-naphthyridine-3-carboxylic acid for treatment of cancer” (priority 2006, dated 2013).
Marks after values point to notes of the source that are not given here.

Tests used:
[1] = test system: M059J (DNAPKcs(−/−)) cells; test: Repair of DNA damage (gH2AX foci) in the absence of DNA-PK; format: cell-based; design: dose or concentration left out as unconfirmed; details: M059J vs M059K (wt), washout, 16 hours recovery
Method: Compound was then removed and cells were allowed to recover for 16 hours. Cells were analyzed for gH2AX foci before and after drug washout.

[2] = test system: LM3-Jck human malignant lymphoma tumor; test: LM3-Jck xenograft model; format: in vivo, nude mice; details: for IR (%) (tumor inhibition rate): LM3-JcK, q7d X3, IV; for Survival Ratio: nude, mouse, in vivo, iv, 21 days
Method: LM3-Jck human malignant lymphoma tumor lobes (2-3 mm square) were transplanted subcutaneously into nude mice. Tumors were allowed to grow to approximately 7-14 mm in diameter. […] Acceptable toxicity was defined as a mean group weight loss of 30% or less and not more than one toxic death among 6 treated animals. Anti-tumor activities of the drugs were assessed 21 days after the start of administration.

[3] = test system: CCRF-CEM acute lymphoblastic leukemia tumor; test: CCRF-CEM xenograft model; format: in vivo, nude mice; details: q7d X3, IV, 25 mg/kg
Method: CCRF-CEM acute lymphoblastic leukemia tumor lobes of 2-3 mm square were transplanted subcutaneously into nude mice. Tumors were allowed to grow to approximately 8-20 mm in diameter. […] Acceptable toxicity was defined as a mean group weight loss of 30% or less and not more than one toxic death among 6 treated animals. Anti-tumor activities of the drugs were assessed 20 or 21 days after the start of administration. Table 14 provides data for tumor inhibition (TI) and survival rate in the CCRF-CEM and LM3-Jck xenograft models.

DNAPKcs(−/−) (MO59J) = test: Timing of apoptosis (caspase-3 activation); format: cell-based; details: Cell Line DNAPKcs(−/−); dosed at 30 fold above the EC50 for cytotoxicity

CN[C@H]1CN(c2ccc3c(=O)c(C(=O)O)cn(-c4nccs4)c3n2)C[C@@H]1OC [SNS-595, (+)-1,4-dihydro-7-[(3S,4S)-3-methoxy-4-(methylamino)-1-pyrrolidinyl]-4-oxo-1-(2-thiazolyl)-1,8-naphthyridine-3-carboxylic acid]
repair of induced DNA damage (gH2AX foci) in the absence of DNA-PK [1]: not effectively repaired
antitumor activity against LM-3 Jck malignant lymphoma ([2]; 20 and 25 mg/kg): strong antitumor activity with complete tumor regressions
IR (%) (tumor inhibition rate) ([2]; 20 mg/kg): 98.9* %
IR (%) (tumor inhibition rate) ([2]; 25 mg/kg): 98.5* %
Survival Ratio ([2]; 20 mg/kg): 6/6
Survival Ratio ([2]; 25 mg/kg): 6/6
IR (%) (tumor inhibition rate) [3]: 98.1* %
Timing of apoptosis: fraction of cell cycle to achieve 50% maximal caspase-3 activation (DNAPKcs(−/−) (MO59J)): 0.25
